From publication PMC6719955, “HPLC-ESI-qTOF-MS/MS Characterization, Antioxidant Activities and Inhibitory Ability of Digestive Enzymes with Molecular Docking Analysis of Various Parts of Raspberry (Rubus ideaus L.)” (Antioxidants, 2019)
Where two headings read alike, the source gives them in different places.

Experiments:
α-glucosidase [1] = details: cited from earlier work
α-glucosidase [2] = experiment: α-Glucosidase inhibition activity assay (p-NPG); format: biochemical, Saccharomyces cerevisiae; details: 1 U/mL enzyme, pH 6.8, 37 °C
Source text: (§1) The Folin–Ciocalteu phenol reagent and chemicals used for the antioxidant activity assay were purchased from Aladdin Industrial Corporation (Shanghai, China). Phenolic standards, trolox, p-Nitrophenyl-α-D-glucopyranoside (p-NPG, > 99.8%), porcine pancreatic α-amylase (13 U/mg), and α-glucosidase (≥ 58 U/mg solid) from Saccharomyces cerevisiae were all purchased from Sigma-Aldrich (St. Louis, MO, USA). Analytical-grade materials were purchased from Guangzhou Reagent Co. (Guangzhou, China). Formic acid and acetonitrile used for the HPLC analysis were of chromatography grade. Water was purified by the Milli-Q (Millipore, MA, USA) system and filtered through membranes with a pore size of 0.22 μm before use.
The inhibitory activity of α-glucosidase was performed as the previous reported method with modifications. Briefly, 100 μL of the extracts’ dilutions and 100 μL of 1 U/mL α-glucosidase in 0.1 M phosphate buffer solution (pH 6.8) was mixed and pre-incubated at 37 °C for 10 min. Then, 100 μL of 5 mM p-NPG solution was added, and the reaction solution was incubated for another 20 min. The reaction was terminated by adding 500 μL of 0.2 M Na2CO3 solution. The absorbance at 405 nm was recorded. […] The inhibitory potency (%) was calculated by Equation (3). (3) α-Glucosidase inhibitory potency (%) = [1−ΔAs/ΔAc]×100 where ΔAs = Aextract+enzyme − Aextract, ΔAc = Abuffer+enzyme − Abuffer.

[3] = design: method as in Malinda et al. (2017) [34]; details: ref Malinda et al. (2017) [34]; cited from earlier work
[4] = molecular target: T1, porcine pancreatic α-amylase (Sus scrofa, UniProt P00690); experiment: α-Amylase inhibition activity assay (starch/DNS); format: biochemical; details: 0.5 mg/mL enzyme, pH 6.8, 37 °C
T1 construct: purchased Sigma-Aldrich
T1 sequence (P00690 16-511): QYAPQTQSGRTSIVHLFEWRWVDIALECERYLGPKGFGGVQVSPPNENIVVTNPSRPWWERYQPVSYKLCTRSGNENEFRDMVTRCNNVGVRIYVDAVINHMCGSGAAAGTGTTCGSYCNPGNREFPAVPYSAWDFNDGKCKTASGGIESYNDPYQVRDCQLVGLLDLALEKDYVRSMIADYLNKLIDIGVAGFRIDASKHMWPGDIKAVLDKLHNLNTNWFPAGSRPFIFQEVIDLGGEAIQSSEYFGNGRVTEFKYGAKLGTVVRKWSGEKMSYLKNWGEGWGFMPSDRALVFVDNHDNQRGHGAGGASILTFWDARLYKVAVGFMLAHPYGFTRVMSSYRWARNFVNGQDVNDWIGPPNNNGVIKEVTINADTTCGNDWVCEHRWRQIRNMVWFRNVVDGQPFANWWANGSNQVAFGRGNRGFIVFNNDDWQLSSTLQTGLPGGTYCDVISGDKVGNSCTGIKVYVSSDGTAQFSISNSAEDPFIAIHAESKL
Source text: as §1, with “Phenolic standards, trolox, p-Nitrophenyl-α-D-glucopyranoside (p-NPG, > 99.8%), porcine pancreatic α-amylase (13 U/mg), and α-glucosidase (≥ 58 U/mg solid) from Saccharomyces cerevisiae were all purchased from Sigma-Aldrich (St. Louis, MO, USA).” left out

[5] = ABTS cation radical scavenging activity assay; details: extracts made with 50% methanol
Method: ABTS assay was determined according to the method of Wang et al. (2017). The absorbance at […] was recorded by the microplate reader. Trolox or Vc solution (5–100 μg/mL) was served as positive controls. The scavenging activity (%) was calculated by Equation (2). (2) ABTS^+ radical scavenging activity (%) = (1−As−Ab/Ac)×100 where As = the absorbance of the extracts with ABTS^+ solution, Ab = the absorbance of the extracts without ABTS^+ solutionl, Ac = the absorbance of ABTS^+ solution.

[6] = DPPH radical scavenging activity assay; details: extracts made with 50% methanol
Method: DPPH assay was measured based on the method described earlier. The absorbance at 517 nm was recorded by a microplate reader (SpectraMax M5 Molecular Device, CA, USA). Trolox or Vc solution (5–100 μg/mL) were served as positive controls. […] (1) DPPH radical scavenging activity (%) = (1−As−Ab/Ac)×100 where As = the absorbance of the sample extracts with DPPH solution, Ab = the absorbance of the sample extracts without DPPH solution, Ac = the absorbance of DPPH solution.

[7] = Hydroxyl (OH^−) radical scavenging activity assay; details: extracts made with 50% methanol
Method: The scavenging activity of OH[…] radicals was measured based on the method described by Liu et al., 2017 [19]. The reaction mixture included 100 μL of the extracts’ dilutions, 100 μL of 6 mM […] solution, and 100 μL of 2.4 mM H2O2. After 10 min of incubation at 25°C, the mixture was incubated with 100 μL of 6 mM salicylic acid at 25 °C for 30 min, then the absorbance at 510 nm was measured. A Trolox or Vc solution (5–100 μg/mL) served as the positive control.

[8] = constituents in raspberry, ref Zhang et al. (2010) [39]

α-glucosidase inhibition IC50 (α-glucosidase [2])	DPPH radical scavenging IC50 [6]	OH^− free radical scavenging IC50 [7]	SMILES	α-glucosidase inhibitory capacity (α-glucosidase [1]; [8])	DPPH radical scavenging activity IC50 [3]	other results
590.34 ± 15.71 µg/mL	–	–	O=C(O)c1cc(O)c(O)c(O)c1 [GA, Gallic acid]	strong	2.24 µg/mL	–
–	39.90 ± 0.67 µg/mL	33.91 ± 1.82 µg/mL	Cc1c(C)c2c(c(C)c1O)CCC(C)(C(=O)O)O2 (stereo not drawn) [Trolox]	–	–	ABTS^+ free radical scavenging IC50 [5]: 41.50 ± 1.97 µg/mL
–	16.80 ± 1.31 µg/mL	19.83 ± 0.37 µg/mL	O=C1O[C@H]([C@@H](O)CO)C(O)=C1O [Vc, ascorbic acid]	–	–	–

Further lines, the molecule ahead of its results:

SMILES	α-glucosidase inhibition IC50 (α-glucosidase [2])	DPPH radical scavenging IC50 [6]	OH^− free radical scavenging IC50 [7]	α-glucosidase inhibitory capacity (α-glucosidase [1]; [8])	DPPH radical scavenging activity IC50 [3]	other results
O=c1oc2c(O)c(O)cc3c(=O)oc4c(O)c(O)cc1c4c23 [EA, Ellagic acid]	976.32 ± 41.72 µg/mL	–	–	weakest	4.80 µg/mL	–
Oc1cc(O)c2c(c1)O[C@H](c1ccc(O)c(O)c1)[C@@H](O)[C@@H]2c1c(O)cc(O)c2c1O[C@H](c1ccc(O)c(O)c1)[C@@H](O)[C@@H]2c1c(O)cc(O)c2c1O[C@H](c1ccc(O)c(O)c1)[C@@H](O)C2 [PC, Procyanidin C3]	93.37 ± 5.79 µg/mL	–	–	–	–	α-amylase inhibition IC50 [4]: 92.31 ± 3.51 µg/mL; α-glucosidase inhibitory capacity (α-glucosidase [1]; ref Wang et al. (2018) [38]): strong
C[C@@H]1O[C@@H](OC[C@H]2O[C@@H](Oc3c(-c4ccc(O)c(O)c4)oc4cc(O)cc(O)c4c3=O)[C@H](O)[C@@H](O)[C@@H]2O)[C@H](O)[C@H](O)[C@H]1O [rutin, Rutin]	–	–	–	strong	–	–
